Source: patent US7491827B2, “Aryl sulfonamides useful as inhibitors of chemokine receptor activity” (Millennium Pharmaceuticals, Inc., priority 2003, dated 2009)

Each molecule was assayed against T1, cloned human CCR8 receptor stably expressed in L1.2 cells (Homo sapiens, UniProt P51685) (assay: whole cell binding screen: inhibition of biotinylated human I309 binding to CCR8 (FMAT 8100 HTS)). Conditions: Ki of compounds to inhibit I-309 binding to CCR8, L1.2/hCCR8 cells, biotinylated human I-309, 10 point concentration response starting at 10 μM.
T1 construct: expressed in transfected cells
Summary of the method: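 Ten-point dilutions, top 10 μM final, were tested for displacing biotin-I309 from hCCR8-transfected L1.2 cells in HEPES-buffered HBSS with BSA and sodium azide, mixing 0.5 h before FMAT 8100 detection. Signals converted to percent inhibition against untreated wells and a 100 nM excess unlabeled I309 control.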

T1 sequence (P51685 whole entry): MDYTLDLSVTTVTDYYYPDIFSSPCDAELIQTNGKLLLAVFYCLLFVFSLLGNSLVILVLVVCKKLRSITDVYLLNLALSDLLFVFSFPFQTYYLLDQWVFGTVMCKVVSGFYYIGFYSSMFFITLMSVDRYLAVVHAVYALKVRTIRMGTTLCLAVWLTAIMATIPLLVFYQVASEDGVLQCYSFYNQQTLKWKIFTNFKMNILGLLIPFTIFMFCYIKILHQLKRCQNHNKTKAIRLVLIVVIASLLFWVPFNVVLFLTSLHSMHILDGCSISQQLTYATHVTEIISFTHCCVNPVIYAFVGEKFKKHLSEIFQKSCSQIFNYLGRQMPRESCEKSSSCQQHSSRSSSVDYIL

Row | SMILES | Ki [nM]
1 | O=C(Nc1ccc(S(=O)(=O)Nc2ccccc2)c2ccccc12)c1ccccc1 [Compound A-7, N-(4-Phenylsulfamoyl-naphthalen-1-yl)-benzamide] | < 1000
2 | Cc1ccccc1C(=O)Nc1ccc(S(=O)(=O)NC2CCN(C(=O)N3CCCCC3)CC2)c2ccccc12 [Compound C-44, 2-Methyl-N-{4-[1-(piperidine-1-carbonyl)-piperidin-4-ylsulfamoyl]-naphthalen-1-yl}-benzamide] | < 1000

Same assay, conditions: L1.2/hCCR8 cells, biotinylated human I-309, 10 point concentration response starting at 10 μM; read-out: Ki of compounds to inhibit I-309 binding to CCR8

Row | Ki [nM] | SMILES
3 | < 500 | Cc1ccccc1C(=O)Nc1ccc(S(=O)(=O)N[C@H]2CCNC[C@@H]2C)c2ccccc12 (racemic) [Compound C-14, (±)-trans-2-MethylN-[4-(3-methyl-piperidin-4-ylsulfamoyl)-naphthalen-1-yl]-benzamide]
4 | < 500 | CCOC(=O)N1CCC(NS(=O)(=O)c2ccc(CNC3CCCCC3)c3ccccc23)CC1 [Compound G-8, 4-(4-Cyclohexylainnomethyl-naphthalene-1-suffonylamino)-piperidine-1-carboxylic acid ethyl ester]
5 | < 500 | CCOC(=O)N1CC[C@H](NS(=O)(=O)c2ccc(NC(=O)c3ncccc3C)c3ccccc23)[C@H](C)C1 (racemic) [Compound D-7, (±)-(cis)-3-Methyl-4-{4-[(3-methyl-pyridine-2-carbonyl)-amino]-naphthalene-1-sulfonylamino}-piperidine-1-carboxylic acid ethyl ester]
6 | < 30000 | COc1ccc(NS(=O)(=O)c2ccc(NC(=O)Nc3ccccc3)c3ccccc23)cc1 [Compound B-10, 4-(3-Phenyl-ureido)-naphthalene-1-sulfonic acid (4-methoxy-phenyl)-amide]
7 | < 500 | CCOC(=O)N1CCC(NS(=O)(=O)c2ccc(CNCc3ccccc3C)c3ccccc23)CC1 [Compound G-11, 4-{4-[(2-Methyl-benzylamino)-methyl]-naphthalene-1-sulfonylamino}-piperidine-1-carboxylic acid ethyl ester]
8 | < 500 | CCCC(=O)N1CC[C@H](NS(=O)(=O)c2ccc(NC(=O)c3ccccc3C)c3ccccc23)[C@@H](C)C1 (racemic) [Compound C-19, (±)-trans-N-[4-(1-Butyryl-3-methyl-piperidin-4-ylsulfamoyl)-naphthalen-1-yl]-2-methyl-benzamide]
9 | < 500 | CC(=O)N1CC[C@H](NS(=O)(=O)c2ccc(NC(=O)c3ccccc3C)c3ccccc23)[C@H](C)C1 (racemic) [Compound C-30, (±)-cis-N-[4-(1-Acetl-3-methyl-piperidin-4-ylsulfamoyl)-naphthalen-1-yl]-2-methyl-benzamide]
10 | < 500 | CC(C)c1ccc(NS(=O)(=O)c2ccc(NC(=O)c3ccccc3)c3ccccc23)cc1 [Compound A-28, N-[4-(4-Isopropyl-phenylsulfamoyl)-naphthalene-1-yl]-benzamide]
11 | < 30000 | CC(C)(C)OC(=O)N1CCC(NS(=O)(=O)c2ccc(C(=O)NC3CCOCC3)c3ccccc23)CC1 [Compound F-15, 4-[4-(Tetrahydro-pyran-4-ylcarbamoyl)-naphthalene-1-sulfonylamino]-piperidine-1-carboxylic acid tert-butyl ester]
12 | < 500 | Cc1ccccc1C(=O)Nc1ccc(S(=O)(=O)NC2(C)CCN(C(=O)OC(C)C)CC2)c2ccccc12 [Compound C-26, 4-Methyl-4-[4-(2-methyl-benzoylaminno)-naphthalene-1-sulfonylamino]-piperidine-1-carboxylic acid isopropyl ester]
13 | < 500 | CCOC(=O)N1CCC(NS(=O)(=O)c2ccc(CNC(=O)c3ccccc3C)c3ccccc23)CC1 [Compound G-1, 4-{4-[(2-Methyl-benzoylamino)-methyl]-naphthalene-1-sulfonylamino}-piperidine-1-carboxylic acid ethyl ester]
14 | < 5000 | Cc1ccccc1C(=O)Nc1ccc(S(=O)(=O)N[C@@H]2CCNC[C@H]2C)c2ccccc12 [Compound J-54]
15 | < 1000 | Cc1ccccc1C(=O)Nc1ccc(S(=O)(=O)N[C@H]2CCN(Cc3ccccc3)C[C@H]2C)c2ccccc12 (racemic) [Compound A-21, (±)-cis-N-[4-(1-Benzyl-3-methyl-piperidin-4-ylsulfamoyl)-naphthalen-1-yl]-2-methyl-benzamide]
16 | < 30000 | CC(C)NS(=O)(=O)c1ccc(NC(=O)c2ccccc2)c2ccccc12 [Compound A-11, N-(4-Isopropylsulfamoyl-naphthalen-1-yl)-benzamide]
17 | < 500 | COc1ccc(NS(=O)(=O)c2ccc(NC(=O)c3ccccc3C)c3ccccc23)cc1 [Compound B-11, N-[4-(4-Methoxy-phenylsulfamoyl)-naphthalen-1-yl]-2-methyl-benzamide]
18 | < 500 | CCCC(=O)N1CCC(NS(=O)(=O)c2ccc(C(=O)Nc3ccccc3Cl)c3ccccc23)CC1 [Compound F-22, 4-(1-Butyryl-piperidin-4-ylsulfamoyl)-naphthalene-1-carboxylic acid (2-chloro-phenyl)-amide]
19 | < 1000 | CCOC(=O)N1CCC(NS(=O)(=O)c2ccc(CNCc3ccncc3)c3ccccc23)CC1 [Compound G-15, 4-(4-{[(Pyridin-4-ylmethyl)-ainno]-methyl}-naphthalene-1-sulfonylamino)-piperidine-1-carboxylic acid ethyl ester]
20 | < 30000 | Cc1ccccc1NC(=O)c1ccc(S(=O)(=O)NC2CCNCC2)c2ccccc12 [Compound F-5, 4-(Piperidin-4-ylsulfamoyl)-naphthalene-1-carboxylic acid o-tolylamide]
21 | < 500 | Cc1ccccc1C(=O)Nc1ccc(S(=O)(=O)NC2[C@@H](C)CNC[C@@H]2C)c2ccccc12 (racemic) [Compound C-64, (±)-(cistrans)-N-[4-(3,5-Dimethyl-piperidin-4-ylsulfamoyl)-naphthalen-1-yl]-2-methyl-benzamide]
22 | < 1000 | Cc1ccccc1C(=O)Nc1ccc(S(=O)(=O)N[C@@H]2[C@H](C)CN(C(=O)N(C)C)C[C@@H]2C)c2ccccc12 [Compound C-71, (±)-(cis,cis)-3,5-Dimethyl-4-[4-(2-methyl-benzoylamino)-naphthalene-1-sulfonylamino]-piperidine-1-carboxylic acid dimethylamide]
23 | < 500 | CCOC(=O)N1CC[C@H](NS(=O)(=O)c2ccc(NC(=O)c3ccccc3C)c3ncccc23)[C@H](C)C1 [Compound J-40, (3R, 4S)-3-Methyl-4-[8-(2-methyl-benzoylamino)-quinoline-5-sulfonylamino]-piperidine-1-carboxylic acid ethyl ester]
24 | < 500 | Cc1ccccc1C(=O)Nc1ccc(S(=O)(=O)N[C@H]2CCNC[C@@H]2C)c2ccccc12 [Compound J-44]
